These results are taken from patent publication US20190185865A1, “USE OF PROKARYOTIC TRANSCRIPTIONAL ACTIVATORS AS METABOLITE BIOSENSORS IN EUKARYOTIC CELLS” (Danmarks Tekniske Universitet, priority 2016, published 2019).

The test system of one data set is MdcR. Description: Malonic acid induction of MdcR-mediated GFP expression in yeast. The format is cell-based. To be noted: MdcR from TDH3 promoter, MAE1 transporter; 10 mM malonic acid. The protocol: (§1) Events were analyzed using FlowJo software (TreeStar Inc.).
(§2) The genetic device developed in this study represents to the best of our knowledge the first example of transplanting a prokaryotic transcriptional activator into a eukaryotic chassis and successfully using it to activate gene expression without the need for modifying the protein beyond codon optimization. […] To test the generality of the biosensor design for onboarding other small-molecule binding transcriptional activators as biosensors in yeast we selected four other candidates from the LTTR family; FdeR from Herbaspirillum seropedicae, PcaQ from Sinorhizobium meliloti, ArgP from Escherichia coli, and MdcR from Klebsiella pneumonia, with co-inducers naringenin, protocatechuic acid (PCA), L-arginine, and malonic acid, respectively. In this proof-of-principle study we selected the four candidates based on a minimal set of information, including knowledge about operator sequences, experimental evidence for ligand-inducible control of target operons, and their mode-of-action within native chassis (ie. activation, FIG. 1). Furthermore all of these metabolites can passively diffuse across the yeast plasma membrane, with the exception of malonic acid, which requires the expression of the dicarboxylic acid transporter MAE1 from Schizosaccharomyces pombe. […]

In another data set the target is T1, ArgP (Escherichia coli, UniProt P0A8S1).
T1 construct: expressed in transfected cells; host or cells: Saccharomyces cerevisiae CEN.PK113-5A; REV1p or TDH3p, chromosomal integration (TISNO-66/-73)
The data set is described as follows: L-arginine induction of ArgP-mediated GFP expression in yeast. As to conditions: 30 mM L-arginine. The format is cell-based. On the procedure:
as §1, §2

Data set [1] in a line: Solubility in growth medium. The format is physicochemical. As to conditions: aqueous buffer, read-out: concentrations of naringenin soluble in growth medium.
The next data set has as its system FdeR. The data set is described as follows: Naringenin induction of FdeR-mediated GFP expression in yeast. The format is cell-based, Saccharomyces cerevisiae.
Description: Strains, chemicals and media. Saccharomyces cerevisiae CEN.PK102-5B (MATa ura3-52 his3Δ1 leu2-3/112 MAL2-8^c SUC2), CEN.PK113-5A (MATa, trp1 his3Δ1 leu2-3/112 MAL2-8^c SUC2) and CEN.PK113-7D (wild type, MATa MAL2-8^c SUC2) strains were obtained from Peter Kotter (Johann Wolfgang Goethe-University Frankfurt, Germany). In principal any other yeast strains may be used, such as one obtained from public repository EuroScarf. EasyClone plasmids used in this work are described in Jensen, N. B. et al. EasyClone: method for iterative chromosomal integration of multiple genes in Saccharomyces cerevisiae. FEMS Yeast Res. 14, 238-48 (2014). Escherichia coli strain DH5a was used as a host for cloning and plasmid propagation. The chemicals and Pfu TURBO DNA polymerase were commercially obtained (Sigma-Aldrich and Agilent Technologies Inc., respectively). All acids used were >97% in purity. S. cerevisiae cells were grown at 30° C. in synthetic complete medium as well as drop-out media and agar plates were prepared using pre-mixed drop-out powders (Sigma-Aldrich). Mineral medium was freshly prepared as described previously. For all media containing diacids, 1.4 mM of the individual diacids were dissolved in mineral medium and pH adjusted to 4.5 before sterile filtration. For CCM several dilutions were made to examine the performance of the CCM biosensor. For naringenin, mineral medium was supplemented with 0, 0.05, 0.10 or 0.20 mM naringenin, dissolved in ethanol, the final ethanol concentration for each medium was 2% (v/v), and the final pH of the medium was adjusted to 6.0. E. coli cells were grown at 37° C. in Luria-Bertani (LB) medium supplemented with 100 μg/mL ampicillin.
as §1
The genetic device developed in this study represents to the best of our knowledge the first example of transplanting a prokaryotic transcriptional activator into a eukaryotic chassis and successfully using it to activate gene expression without the need for modifying the protein beyond codon optimization. […]

Data set [2] has as its system 209 bp_CYC1p_T1 promoter with MdcO or ArgO. Description: Cross-reactivity of LTTRs ArgP and MdcR with operators MdcO and ArgO (flow cytometry). The format is cell-based, Saccharomyces cerevisiae. To be noted: ArgP and MdcR with 209 bp_CYC1p_T1 carrying MdcO or ArgO. The source says:
Many of the characterized LTTRs regulate operons by binding prototypic LTTR box patterns 5′-T-N11-A-3′ and 5′-TTA-N7/8-GAA-3′. In addition to transcriptional orthogonality (FIG. 3b), we therefore further tested if individual LTTRs would cross-react with operators for another LTTR. For this purpose, we expressed LTTRs ArgP and MdcR together with the 209 bp_CYC1p_T1 promoter with operators for MdcR (herein MdcO) or ArgP (herein ArgO) driving the expression of GFP. As controls we tested GFP expression from 209 bp_CYC1p_T1 promoter with MdcO or ArgO without expression of LTTRs. […] This is in agreement with another study on cross-reactivity between promoter and transcriptional regulators of the TetR family, and the fact that LTTR residues in both the conserved N-terminal DNA-binding domains and the divergent EBDs are important for DNA-binding.

The subject of another data set is 209 bp_CYC1p_T1 promoter. Description: LTTR-mediated activation of GFP expression from 209 bp_CYC1p_T1 reporter promoter in yeast, without ligand. The format is cell-based, Saccharomyces cerevisiae. As to conditions: LTTR expressed from weak REV1p promoter. On the procedure:
as §1, §2

In a further data set the test system is yeast transcriptome. Description: Transcriptome analysis (RNA-seq) of yeast with or without BenM^H110R, F211V, Y286N. The format is cell-based, Saccharomyces cerevisiae. To be noted: 24 h cultivation in the presence of CCM. On the procedure:
To study the impact of ligand-induced BenM on genome-wide gene expression, triplicate cultures of strains MeLS0138 and MeLS0284 were grown for 24 h at 30° C. in 50 ml mineral medium pH 4.5 with 1.4 mM CCM. […] Briefly, 15 ml samples of the six cultures were harvested into a pre-chilled 50 ml tube with crushed ice and then immediately centrifuged at 4° C., 4000×rpm for 5 min. Subsequently, the pellets were resuspended in 2 ml of RNAlater® Solution (Ambion, Life Technologies) and incubated on ice for 1 h. Next, cells were pelleted by centrifugation (12,000×rpm for 10 s) and transferred to liquid nitrogen, and stored at −80° C. until further analysis. Total RNA extraction was performed using RNeasy® Mini Kit (QIAGEN). […] The quantity and quality of the RNA samples were measured using Qubit 2.0 Fluorometer using the Qubit RNA BR Assay (Thermo Fisher Scientific) and Agilent 2100 Bioanalyzer using the RNA 6000 Nano Kit (Agilent Technologies), respectively. For sequencing we used 3 μg of total RNA as input for TruSeq® Stranded mRNA Sample Preparation kit prior to sequencing on the MiSeq System using MiSeq Reagent Kit v3 150 cycles at a 2×75 bp read length configuration (Illumina) obtaining 38 M reads. […]

Take `O=C(O)CC(=O)O` [malonic acid]: the “induction of GFP expression upon addition of cognate inducer” value (“induction … of cognate inducer” for short) in the data set on MdcR is on record as “further induce GFP expression”.

For the molecule `N=C(N)NCCC[C@H](N)C(=O)O` [L-arginine], the “ligand-inducible increase in GFP expression” value on ArgP (ArgP expression controlled by REV1p) is on record as “significant ligand-inducible increase in GFP expression”. The “induction … of cognate inducer” value on ArgP (ArgP from TDH3 promoter) was “further induce GFP expression”.

Turning to `O=C1C[C@@H](c2ccc(O)cc2)Oc2cc(O)cc(O)c21` [naringenin], in data set [1], the solubility was less than 200 µM. In addition, the “induction … of cognate inducer” value with FdeR (FdeR from TDH3 promoter, 0.2 mM naringenin) is reported as “further induce GFP expression”. For the same molecule, the “maximum increase in GFP expression” value in the data set with FdeR (FdeR from strong TDH3 promoter, 0.2 mM naringenin, 24 h) came to 1.7 fold. Besides, the “induction of GFP expression” value with FdeR (FdeR from weak REV1 promoter, any of the tested naringenin concentrations) is “did not support induction of GFP expression”.

B1: ArgP: LTTR transcriptional activator from Escherichia coli, co-inducer L-arginine (protein, UniProt P0A8S1 1-297, looked up)
HTH-type transcriptional …: MKRPDYRTLQALDAVIRERGFERAAQKLCITQSAVSQRIKQLENMFGQPLLVRTVPPRPTEQGQKLLALLRQVELLEEEWLGDEQTGSTPLLLSLAVNADSLATWLLPALAPVLADSPIRLNLQVEDETRTQERLRRGEVVGAVSIQHQALPSCLVDKLGALDYLFVSSKPFAEKYFPNGVTRSALLKAPVVAFDHLDDMHQAFLQQNFDLPPGSVPCHIVNSSEAFVQLARQGTTCCMIPHLQIEKELASGELIDLTPGLFQRRMLYWHRFAPESRMMRKVTDALLDYGHKVLRQD
With B1, the “cross-reaction of LTTR with operator for another LTTR” value in data set [2] was “specificity between LTTR transcriptional activators and their inferred operator”. The “activation of GFP expression compared to yeast cells without expression of an LTTR” value in the data set on 209 bp_CYC1p_T1 promoter is 2.2 ×.

B2: BenM^H110R, F211V, Y286N (protein, UniProt O68014 1-304, looked up, variant H110R F211V Y286N)
HTH-type transcriptional …: MELRHLRYFVAVVEEQSFTKAADKLCIAQPPLSRQIQNLEEELGIQLLERGSRPVKTTPEGHFFYQYAIKLLSNVDQMVSMTKRIASVEKTIRIGFVGSLLFGLLPRIIRLYRQAHPNLRIELYEMGTKAQTEALKEGRIDAGFGRLKISDPAIKRTLLRNERLMVAVHASHPLNQMKDKGVHLNDLIDEKILLYPSSPKPNFSTHVMNIVSDHGLEPTKINEVREVQLALGLVAAGEGISLVPASTQSIQLFNLSYVPLLDPDAITPIYIAVRNMEESTYIYSLNETIRQIYAYEGFTEPPNW
Regarding B2, the “average GFP transcript abundance, strain MeLS0284 compared to strain MeLS0138” value in the data set on yeast transcriptome is “approximately 27 fold”. Further, the “decrease in expression level of TCS3” value in the data set on yeast transcriptome (P<0.05, >2-fold cut-off) worked out at 2.3 ×.
